The values that follow come from patent publication US20220273809A1, “AXL ANTIBODY-DRUG CONJUGATES FOR USE IN TREATING CANCER” (GENMAB A/S, priority 2019, published 2022).

One assay deals with LXFA 526. As to conditions: 4 mg/kg i.v.; Boshuizen et al, Nature Med 2018; cited from earlier work.
For assay [1], the system named is LCLC-103H cells. Kind of assay: Extracellular ATP release in vitro (CellTiterGlo). Type of assay: cell-based, human. Conditions: 48 hr, 100% PBS; ADC 2 μg/mL, paclitaxel 1 μM, MMAE 10 or 50 nM. How it is done:
(§1) LCLC-103H or MDA-MB-231 cells were seeded in quadruplicate at 25,000 cells per well for LCLC-103H cells or 125,000 cells per well for MDA-MB-231 cells in 24-well plates and grown 3 hours at 37° C. Subsequently, IgG1-AXL-107-vcMMAE (2 μg/mL), free monomethyl auristatin E (MMAE; 10 or 50 nM), paclitaxel (1 μM), or isotype control ADC (IgG1-b12-vcMMAE; 2 μg/mL) were added per well.
(§2) Plates were incubated for 48 hr at 37° C. and after incubation each well was washed with 200 μL PBS. After the final wash, PBS was replaced with 200 μL fresh 100% PBS or 70% PBS (hypotonic) for the indicated times, harvested and transferred to a 96-well plate, and then spun at 1000 rpm for 2 min at RT. Supernatants were transferred to a new 96-well (optiwhite) plate and ATP was measured using CellTiterGlo Luminescent Cell Viability Assay (Promega, Cat.no G7570) according to manufacturer's instructions. All steps were performed with ice-cold PBS and in the dark.
Background: Cellular ATP, detected with luciferase, serves as a proxy for viable cell number.

The test system of assay [2] is MDA-MB-231 cells. Kind of assay: Extracellular ATP release in vitro (CellTiterGlo). It counts as cell-based, human. Conditions: 48 hr, hypotonic conditions (70% PBS); ADCs 2 μg/mL, MMAE 50 nM, paclitaxel 1 μM. How it is done: as §1, §2
Assay [3] deals with LCLC-103H cells. Nature of the assay: HMGB1 secretion in vitro (ELISA). Type of assay: cell-based, human. Conditions: 48 hrs; ADC 2 μg/mL, MMAE 10 or 50 nM, paclitaxel 1 μM. How it is done: (§3) MDA-MB-231 or LCLC-103H cells were seeded in quadruplicate at 125,000 cells per well (MDA-MB-231) or 25,000 cells/well (LCLC-103H) in 24-well plates and grown 3-4 hrs at 37° C. Subsequently, IgG1-AXL-107-vcMMAE (2 μg/mL), free monomethyl auristatin E (MMAE; 10 or 50 nM), paclitaxel (1 μM), or isotype control ADC (IgG1-b12-vcMMAE; 2 μg/mL) were added to the wells and plates were incubated for 48 hrs at 37° C. After incubation cells were pelleted at 1000 rpm for 3 min at RT and supernatants were transferred to a new 96-wells plate. HMGB1 was measured in the supernatant using a HMGB1-specific ELISA kit (IBL, Cat.no ST51011) according to manufacturer's instructions.
A general note: ELISA stands for enzyme-linked immunosorbent assay.

Assay [4] deals with MDA-MB-231 cells. Kind of assay: HMGB1 secretion in vitro (ELISA). Type of assay: cell-based, human. Conditions: 48 hrs; ADC 2 μg/mL, MMAE 10 or 50 nM, paclitaxel 1 μM. How it is done: as §3
The subject of assay [5] is LCLC-103H NSCLC cell line-derived xenograft. Nature of the assay: LCLC-103H NSCLC xenograft model with MART-1-specific human T cells. Type of assay: in vivo, mice. Conditions: ADC 1 mg/kg weekly i.v. with control T cells; anti-PD1 5 mg/kg weekly i.p. with MART-1 T cells and control ADC. How it is done: The anti-tumor activity of IgG1-AXL-107-vcMMAE in combination with anti-PD1 (pembrolizumab) was evaluated in the LCLC-103H NSCLC cell line-derived xenograft model in mice, which systemically received human T-cells that were engineered to express a specific T-cell receptor (TCR) against MART-1. Before inoculation of mice with LCLC-103H cells, the LCLC-103H cells were transduced with the antigen (MART-1) as well as the correct HLA haplotype (HLA-A2) in order for the MART-1-specific T cells to recognize the tumor cells.
8-14 week old male and female NOD-SCID Gamma (NSGTM) mice (bred in-house at the Netherlands Cancer Institute (NKI), Amsterdam, The Netherlands) were subcutaneously injected in the right flank with 1×10^6 […] tumor cells. Tumors were measured three times per week with a caliper, and when tumors were 50 mm3 (after 16 days), mice were randomized over the following treatment groups: • 1. Control T cells+Control ADC (n=7) • 2. MART-1 T cells+Control ADC (n=7) • 3. MART-1 T cells+Control ADC+anti-PD1 (n=7) • 4. Control T cells+IgG1-AXL-107-vcMMAE (n=11) • 5. MART-1 T cells+IgG1-AXL-107-vcMMAE (n=11) • 6. MART-1 T cells+IgG1-AXL-107-vcMMAE+anti-PD1 (n=11) […]
Tumor volumes were measured 3 times per week by an independent animal technician in a blinded fashion. Tumor volume was calculated as follows: […]. […]
In general terms: A xenograft is tissue or cells of one species grown in another, often human tumour cells in immunodeficient mice.

The target in another assay is mouse Axl (Mus musculus, UniProt Q00993). Kind of assay: Binding to mouse Axl.
Chain of mouse Axl (Q00993 19-888): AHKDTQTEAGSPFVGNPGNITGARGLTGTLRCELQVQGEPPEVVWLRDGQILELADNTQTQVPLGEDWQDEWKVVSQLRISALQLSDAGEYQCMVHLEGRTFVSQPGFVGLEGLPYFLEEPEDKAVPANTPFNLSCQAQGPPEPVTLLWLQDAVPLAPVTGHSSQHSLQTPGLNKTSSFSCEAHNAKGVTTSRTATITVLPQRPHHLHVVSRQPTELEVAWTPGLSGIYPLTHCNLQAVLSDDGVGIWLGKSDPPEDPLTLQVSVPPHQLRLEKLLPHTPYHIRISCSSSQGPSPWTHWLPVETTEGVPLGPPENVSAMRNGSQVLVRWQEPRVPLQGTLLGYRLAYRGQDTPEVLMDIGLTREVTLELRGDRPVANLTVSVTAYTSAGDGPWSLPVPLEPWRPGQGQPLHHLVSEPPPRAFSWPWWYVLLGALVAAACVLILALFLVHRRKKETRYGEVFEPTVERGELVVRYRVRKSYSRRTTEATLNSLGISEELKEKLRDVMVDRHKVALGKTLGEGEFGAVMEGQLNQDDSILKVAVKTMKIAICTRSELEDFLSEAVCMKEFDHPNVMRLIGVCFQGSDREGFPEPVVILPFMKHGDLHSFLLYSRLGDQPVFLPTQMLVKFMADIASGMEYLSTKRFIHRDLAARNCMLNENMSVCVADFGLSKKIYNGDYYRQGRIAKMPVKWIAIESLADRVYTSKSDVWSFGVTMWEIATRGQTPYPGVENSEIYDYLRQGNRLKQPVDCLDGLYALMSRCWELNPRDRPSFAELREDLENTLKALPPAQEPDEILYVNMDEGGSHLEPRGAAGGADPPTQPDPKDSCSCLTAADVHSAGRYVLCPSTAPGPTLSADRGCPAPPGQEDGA

As to “IgG1-AXL-107-vcMMAE: anti-human AXL IgG1-kappa antibody conjugated, on an average of 4 cysteinyl, to MMAE via cleavable mc-val-cit-PABC linker”, in the assay on LXFA 526, the “anti-tumor activity / tumor growth” value is reported as “strong anti-tumor activity”. For the same substance, the results for the “ATP release compared to untreated cells” value with LCLC-103H cells [1] and with MDA-MB-231 cells [2] were “about 3 fold” and ~7 fold, respectively. The “HMGB1 secretion compared to untreated cells” value was “about 7.5 fold” with LCLC-103H cells [3] and “about 1.6 fold” with MDA-MB-231 cells [4]. Besides, the “anti-tumor effect (tumor size)” value in assay [5] is recorded as “some tumor growth inhibition”. Moreover, the “binding to mouse Axl” value with mouse Axl is on record as “does not bind”.
